Assay results reported in US11787850B2, “Peptidic TGF-beta antagonists” (priority 2015, dated 2023).

Columns and labels:
[1] = system: TGF-β1-induced Smad3-driven (CAGA12-lux) transcriptional activity; experiment: Luciferase reporter assay in HEK293-(CAGA)12 cells; type: cell-based
[2] = system: TGF-β1-induced Smad3-driven (CAGA12-lux) transcriptional activity; experiment: Luciferase reporter assay in HEK293-(CAGA)12 cells; type: cell-based; conditions: 100 pM TGF-β1, 18 hours; for inhibition of TGF-β1-induced CAGA12-lux activity, peptide pre-treated with DMSO: 0.5% DMSO pre-treatment (FIG. 8); for inhibition of TGF-β1-induced CAGA12-lux activity, peptide in Tris buffer left untreated: no DMSO (FIG. 8)
Protocol: FIGS. 5A and 5B illustrate that some small molecular weight CD109-based peptides (Peptide A, P28, P21 and […]) inhibit TGF-β1-induced Smad3-driven transcriptional activity. […] Cell lysates were analyzed for luciferase activity and data are expressed as mean±standard deviation of relative light units (RLU). […] Under the conditions tested, peptide A, P28, P21 and P16 inhibited TGF-β1-induced transcriptional (CAGA12-lux) activity.
FIG. 6 illustrates that the small molecular weight CD109-based peptide P16 (but not P16-2, P11 or X-4) inhibit TGF-β1-induced Smad3-driven transcriptional activity. HEK293 cells stably transfected with the Smad3-responsive CAGA12-lux luciferase reporter were treated for 18 hours without (−) or with (+) […] TGF-β1 in the presence or absence of 10 nM of P16-2 (16 aa scrambled control), P11 (11 aa sequence), P16 (16 aa), X-4 (11 aa) or Tris-buffer (buffer control) as indicated. Cell lysates were analyzed for luciferase activity and data are expressed as mean±standard deviation of luciferase activity. Results are shown as luciferase activity for the peptides used.
FIG. 8 illustrates that DMSO treatment enhances the TGF-β inhibitory activity of Peptide X but not P21 or P16. HEK293 cells stably transfected with the Smad3-responsive CAGA12-lux luciferase reporter were treated for 18 hours without (−) or with (+) 100 pM TGF-β1 in the presence or absence of Peptide X (PX), P21 or P16. The peptides were previously dissolved in Tris buffer and left untreated or treated with DMSO prior to addition to the cells. Addition of Tris buffer or DMSO alone served as additional controls. Cell lysates were analyzed for luciferase activity and data are expressed as mean±standard deviation of luciferase activity. Results are shown as luciferase activity. […] P16 and P21 inhibited TGF-β1-induced CAGA12-lux activity and these effects were not enhanced by DMSO treatment. […]
FIG. 25 is a graph showing the ability of CD109-based peptides to inhibit TGF-β-induced, Smad3-driven transcriptional activity. HEK293 cells stably transfected with the Smad3-responsive CAGA12-lux luciferase reporter were treated for 18 hours without (−) or with (+) 100 pM TGF-b1 in the presence or absence of 10 nM of P16, P16.2, peptide A, P15, P14, P13, P12, P11, peptide X, P21, or 2% NH4OH buffer (buffer control) as indicated. Cell lysates were analyzed for luciferase activity and data are expressed as mean±standard deviation of luciferase activity.
HEK293 cells stably transfected with the Smad3-responsive CAGA12-lux luciferase reporter construct were incubated with dimeric or monomeric forms of peptide A as indicated and treated with 100 pM TGF-b overnight. Cell lysates were analyzed for luciferase activity. Data are presented as fold-activation compared to TGF-b1 treatment alone (scaled to 1.0). M+D, mixture of monomer and dimer.
Luciferase reporter assays were performed using a HEK293-(CAGA)12 cell line that stably expresses a TGF-β/Smad3-responsive (CAGA)12-luciferase reporter gene [Cash et al. 2013]. HEK293-(CAGA)12 cells were grown in 24-well plates to 70-80% confluency and serum-starved overnight. Cells were washed with PBS and treated with or without TGF-β1 in presence or absence of various CD109-based peptides as indicated in the figure legends. Cells were then washed twice with cold PBS and solubilized in 100 μl of Passive Lysis Buffer (Promega) for 30 min at 4° C. The cell lysates were assayed for luciferase and β-galactosidase activities using commercially available kits (BD Biosciences).
HEK293 cells stably transfected with the Smad3-responsive CAGA12-lux luciferase reporter were treated for 18 hours without (−) or with (+) 100 pM TGF-β1 in the presence or absence of 10 nM (FIG. 5A) or 5 nM (FIG. 5B) of peptide A (Pep A, 161 aa), P28 (28 aa peptide), P21 (21 aa peptide), P16 (16 aa peptide), P16.2 scrambled peptide (16 aa, scrambled P16 sequence) or Tris-buffer (negative control for peptides) as indicated. […]

[3] = Aggregation assay: Microcon 100 kDa filtration, Tricine SDS-PAGE, silver staining; type: physicochemical; conditions: for aggregation state (aggregated versus soluble fraction): 50 mM Tris-HCl pH 7.0, 2 hrs at 4° C., 100 kDa cut-off; for effect of DMSO treatment on aggregation: 0.5% DMSO for 2 hrs at 4° C.
Protocol: Peptide X (X, 40 amino acids) and P16 (16 amino acids) were left untreated (−) or treated with 0.5% DMSO (+) for 2 hrs at 4° C. The aggregated and non-aggregated soluble fractions were then separated using a Microcon™ centrifugal filtration device (Millipore), with a molecular weight cut-off of 100 kDa. This device allows passage of molecules <100 kDa through the filter but retains larger molecules (aggregates). The aggregated (FIG. 1A—left panel) and soluble (FIG. 1B—right panel) fractions were then separated by 17% Tricine-SDS gel electrophoresis and peptides detected by silver staining. In the conditions tested, multiple bands with various staining intensities were detected in peptide X aggregated fraction and two of these bands were decreased with DMSO treatment (A—left panel, arrows) leading to an increase in the amount of soluble peptide X (B—right panel, arrow, lane 2 versus 3). […] (A-B) Lane 1: Molecular weight marker. Lanes 2-5: samples.
Aggregation assay. Soluble peptides were separated from aggregates and precipitates by filtration. The molecular weight cut-off of the filter was chosen such that soluble protein was allowed to pass through the filter, while aggregate forms were retained. Peptide X and P16 previously dissolved in 50 mM Tris-HCl (pH=7.0) were left untreated or treated with 0.5% dimethyl sulfoxide (DMSO) for 2 hours at 4° C. Soluble protein was then separated from aggregated protein using a Microcon™ concentrator (Millipore), with a molecular weight cut-off of 100 kDa. The Microcon was spun in a desktop centrifuge at 16,000×g for 15 min. Aggregated protein retained on the membrane was resuspended in H2O, pipetting repeatedly across the membrane to ensure that as much protein as possible was removed. Aliquots of soluble protein and aggregated protein were each mixed with 5× sample buffer (250 mM Tris-HCl, 40% glycerol, 140 mM SDS, 0.6 M β-mercaptoethanol, pH 6.8) and heated to 85-90° C. for 10 min prior to Tricine SDS-PAGE. Samples were analyzed by 17% Tricine SDS-PAGE and peptides visualized by silver staining. Aggrescan Analysis
Peptide X (X, 40 amino acids) and P16 (16 amino acids) were left untreated (−) or treated with 0.5% DMSO (+) for 2 hrs at 4° C. The aggregated and non-aggregated (soluble) fractions were then separated using a Microcon centrifugal filtration device (Millipore), with a molecular weight cut-off of 100 kDa. This device allows passage of molecules less than 100 kDa through the filter but retains larger molecules (aggregates). The aggregated and soluble fractions were then separated by 17% Tricine-SDS gel electrophoresis and peptides visualized by silver staining.

Sequence | inhibition of TGF-β1-induced CAGA12-lux activity ([1]; 10 nM or 5 nM peptide, 100 pM TGF-β1, 18 hours (FIG. 5)) | inhibition of TGF-β1-induced CAGA12-lux activity ([1]; 10 nM peptide, 100 pM TGF-β1, 18 hours (FIG. 6)) | inhibition of TGF-β1-induced CAGA12-lux activity, peptide pre-treated with DMSO [2] | inhibition of TGF-β1-induced CAGA12-lux activity, peptide in Tris buffer left untreated [2] | aggregation state (aggregated versus soluble fraction) [3] | effect of DMSO treatment on aggregation [3]
ETWIWLDTNMGSRIYQ [Peptide P16] | inhibited | inhibited | not enhanced | inhibited | aggregated only to a minor extent | not altered by DMSO treatment
LGSSPHVRKHFPETWIWLDTNMGSRIYQEFEVTVPDSITS (Peptide X) | – | – | inhibited | did not | existed predominantly in aggregated form | partially decreased
